Assays:
[1] = system: Human immunodeficiency virus 1; test: Antiviral activity against Human immunodeficiency virus 1 infected in human assessed as log reduction in HIV-1 RNA level at 600 mg/kg, BID after 10 days; type: functional
[2] = AUC (0 to 24 hrs) in Human immunodeficiency virus 1 infected human at 600 mg/kg, BID; type: ADME, organism-based; set-up: time < 24 hr, dose 600 mg/kg; settings: plasma
[3] = Half life in healthy human at 200 to 800 mg/kg, BID; type: ADME, organism-based; set-up: dose 200-800 mg/kg; settings: in vivo
[4] = AUC (0 to 24 hrs) in Human immunodeficiency virus 1 infected human at 800 mg/kg, BID; type: ADME, organism-based; set-up: time < 24 hr, dose 800 mg/kg; settings: plasma
[5] = system: Monkey; test: Hepatotoxicity in monkey assessed as increase in liver ALT level at 2000 mg/kg/day; type: toxicity, organism-based; settings: cercopithecidae, in vivo
[6] = AUC (0 to 24 hrs) in Human immunodeficiency virus 1 infected human at 400 mg/kg, BID; type: ADME, organism-based; set-up: time < 24 hr, dose 400 mg/kg; settings: plasma
[7] = AUC (0 to 24 hrs) in Human immunodeficiency virus 1 infected human at 800 mg/kg, QD; type: ADME, organism-based; set-up: time < 24 hr, dose 800 mg/kg; settings: plasma
[8] = system: Rattus norvegicus; test: Hepatotoxicity in rat assessed as increase in liver bilirubin level at >500 mg/kg/day; type: toxicity, organism-based; settings: in vivo
[9] = system: Rattus norvegicus; test: Hepatotoxicity in rat assessed as increase in liver ALT level at >500 mg/kg/day; type: toxicity, organism-based; settings: in vivo
[10] = AUC (0 to 24 hrs) in Human immunodeficiency virus 1 infected human at 200 mg/kg, BID; type: ADME, organism-based; set-up: time < 24 hr, dose 200 mg/kg; settings: plasma

CCCCN1C(=O)[C@@H]([C@H](O)C2CCCCC2)NC(=O)C12CCN(Cc1ccc(Oc3ccc(C(=O)O)cc3)cc1)CC2 [APLAVIROC]
FC [1]: 1.66 | AUC at 24 h [2]: 2100 ng·h/mL | half-life [3]: 3 h | AUC at 24 h [4]: 3410 ng·h/mL | Activity [5]: Non-toxic | AUC at 24 h [6]: 6060 ng·h/mL | AUC at 24 h [7]: 5840 ng·h/mL | Activity [8]: Toxic | Activity [9]: Toxic | AUC at 24 h [10]: 2010 ng·h/mL

Source: ChEMBL document CHEMBL1255236, “Hepatotoxicity observed in clinical trials of aplaviroc (GW873140)” (Antimicrob Agents Chemother, 2008)
